# Key:
# [1] = tested on: excitatory synapses onto CA1 hippocampal interneurons; assay: HFS-induced long-term depression (LTD) of EPSCs, whole-cell recording in hippocampal slices; format: cell-based, rat
# From the text: (§1) The basic methods have been detailed previously (McMahon and Kauer, 1997). Sprague-Dawley rats (15-22 days old) were used in the majority of experiments. In addition, we used TRPV1^−/− mice (Caterina et al., 2000) and wild-type C57BL/6 mice aged between 15 and 21 days (Jackson Laboratory). The TRPV1^−/− mice we used have been backcrossed at least 10 times onto a C57BL/6 background and were obtained from homozygous breeding pairs. Control mice were therefore not littermates but were age-matched, wild-type C57BL/6 animals received from the same supplier in the same shipment. All animal protocols were approved by the Brown University Institutional Animal Care and Use Committee. For mouse experiments, only one brain slice per mouse was used for each experiment, so that reported ‘n’ numbers represent the number of animals. Animals were anaesthetized using halothane or isoflurane and quickly decapitated. The brain was rapidly removed and 300 μm thick coronal slices prepared and stored for at least one hour submerged on a net in artificial cerebrospinal fluid (ACSF) containing in mM: 119 NaCl, 26 NaHCO3, 2.5 KCl, 1.0 NaH2PO4, 2.5 CaCl2, 1.3 MgSO4 and 11 dextrose, saturated with 95% O2/5% CO2 (pH 7.4). Slices were then transferred to a submerged recording chamber and bathed in oxygenated ACSF (28-32° C.) containing elevated divalent cations to reduce epileptiform activity (4 mM CaCl2 and 4 mM MgCl2, replacing MgSO4). A surgical cut was made between the CA3 and CA1 regions. The storage of slices submerged on a net rather than in an interface chamber on filter paper may be important in maintaining slice health and improving the likelihood of observing LTD.
# (§2) Slices were continuously perfused with ACSF warmed to 28-32° C. at a flow rate of 1-2 ml/min. Picrotoxin (100 μM) and D-AP5 (50 μM) were added to block GABAA receptor- and NMDAR-mediated synaptic transmission. Whole-cell patch clamp recordings were made from interneurons identified visually in the CA1 stratum radiatum of the hippocampus. […] Patch pipettes were filled with internal recording solution containing in mM: 117 cesium gluconate, 2.8 NaCl, 5 MgCl2, 20 HEPES, 2 ATP-Na^+, 0.3 GTP-Na^+ and 0.6 EGTA. In some experiments 2 μM capsazepine, 140 nM baicalein, or 250 μM GDPβS were also included in the intracellular patch pipette solution. In experiments with BAPTA-containing patch electrodes, EGTA was omitted from the intracellular solution and 25 or 40 mM BAPTA replaced a corresponding amount of cesium gluconate. EPSCs were stimulated at 0.1 Hz (100 μsec) using a bipolar stainless steel stimulating electrode placed in stratum radiatum at least 200 μm from the recorded cell. CA1 interneurons were voltage clamped at −65 mV (not corrected for the liquid junction potential, of ˜10 mV), and EPSCs were evoked by paired pulses with an interval of 50 msec (stimulus intensity typically 50-400 μA). In early experiments, we measured rectification ratios of EPSCs evoked at +40 mV/−60 mV in the presence of 50 μM D-AP5, measured at the time of peak inward synaptic current seen at −70 mV (Lei and McBain, 2004).
# High-frequency stimulation was used to induce LTD (HFS; two 1 sec trains at 100 Hz, inter-train interval 20 sec, at 1.5 times test current intensity) with the neuron held in current-clamp mode, so that the HFS trains were delivered with the membrane potential free to vary. Receptor antagonists were added directly to the ACSF at known concentrations for at least 10 minutes prior to HFS. Control experiments were interleaved with those experiments using receptor antagonists or involving slices from TRPVl^−/− mice. The cell input resistance and series resistance were monitored throughout each experiment; cells were discarded if these values changed by more than 10% during the experiment.
# [2] = tested on: excitatory synapses onto CA1 hippocampal interneurons; assay: Synaptic failure analysis using minimal stimulation; format: cell-based, rat; details: 12-(S)-HPETE 100 nM; pre-application 35.2±1.9%; n=6
# Experimental: as §2, with “CA1 interneurons were voltage clamped at −65 mV (not corrected for the liquid junction potential, of ˜10 mV), and EPSCs were evoked by paired pulses with an interval of 50 msec (stimulus intensity typically 50-400 μA).” left out
# [3] = tested on: excitatory synapses onto CA1 hippocampal interneurons; assay: Drug-induced depression of EPSC amplitudes, whole-cell recording in hippocampal slices; format: cell-based, rat
# From the text: as §1, §2
# (§3) The maximal initial slope of fEPSPs was calculated using a LabVIEW-based program (National Instruments). The peak amplitude of each EPSC was measured by comparing a 10 msec time period immediately prior to the stimulus with the peak of the EPSC using this program as well. Occasionally polysynaptic responses were evoked, and in these cases, only the initial monosynaptic event was measured. To positively identify LTD, EPSCs measured every 10 seconds were averaged in 1 minute intervals. EPSC amplitude values were normalized to control pre-HFS EPSC amplitude values (baseline period of at least 5 minutes prior to HFS) and subjected to analysis of variance (ANOVA) repeated measures analysis with a post-hoc Dunnett's test (GraphPad Prism, Version 4).
# [4] = tested on: excitatory synapses on interneurons; assay: Drug-induced depression of EPSC amplitudes in slices from TRPV1-/- and C57BL/6 wild-type mice; format: cell-based, mouse; details: 12-(S)-HPETE 100 nM; TRPV1−/− mice; P=0.33, n=6
# From the text: The basic methods have been detailed previously (McMahon and Kauer, 1997). Sprague-Dawley rats (15-22 days old) were used in the majority of experiments. In addition, we used TRPV1^−/− mice (Caterina et al., 2000) and wild-type C57BL/6 mice aged between 15 and 21 days (Jackson Laboratory). The TRPV1^−/− mice we used have been backcrossed at least 10 times onto a C57BL/6 background and were obtained from homozygous breeding pairs. Control mice were therefore not littermates but were age-matched, wild-type C57BL/6 animals received from the same supplier in the same shipment. All animal protocols were approved by the Brown University Institutional Animal Care and Use Committee. For mouse experiments, only one brain slice per mouse was used for each experiment, so that reported ‘n’ numbers represent the number of animals. Animals were anaesthetized using halothane or isoflurane and quickly decapitated. […]
# Slices were continuously perfused with ACSF warmed to 28-32° C. at a flow rate of 1-2 ml/min. […] EPSCs were stimulated at 0.1 Hz (100 μsec) using a bipolar stainless steel stimulating electrode placed in stratum radiatum at least 200 μm from the recorded cell. […] In early experiments, we measured rectification ratios of EPSCs evoked at +40 mV/−60 mV in the presence of 50 μM D-AP5, measured at the time of peak inward synaptic current seen at −70 mV (Lei and McBain, 2004).
# as §3, with “EPSC amplitude values were normalized to control pre-HFS EPSC amplitude values (baseline period of at least 5 minutes prior to HFS) and subjected to analysis of variance (ANOVA) repeated measures analysis with a post-hoc Dunnett's test (GraphPad Prism, Version 4).” left out
# TRPV1 channels = target: T1, TRPV1 channels (Mus musculus, UniProt Q704Y3); assay: TRPV1 agonist-evoked inward current and depolarization in CA1 pyramidal neurons; format: cell-based; details: 12-(S)-HPETE 100 nM bath-applied
# T1 construct: whole-cell recordings from acutely prepared brain slices from wild type C57BL/6 mice; from tissue; host or cells: acute coronal hippocampal slices from P14-P20 wild-type C57BL/6 mice: CA1 pyramidal neurons
# [5] = tested on: synapses between CA3 and CA1 pyramidal cells; assay: Field EPSP recordings in hippocampal slices; format: cell-based, rat; details: 100 nM 12-(S)-HPETE; P=0.83, n=5
# Experimental: The maximal initial slope of fEPSPs was calculated using a LabVIEW-based program (National Instruments). The peak amplitude of each EPSC was measured by comparing a 10 msec time period immediately prior to the stimulus with the peak of the EPSC using this program as well. Occasionally polysynaptic responses were evoked, and in these cases, only the initial monosynaptic event was measured. To positively identify LTD, EPSCs measured every 10 seconds were averaged in 1 minute intervals. EPSC amplitude values were normalized to control pre-HFS EPSC amplitude values (baseline period of at least 5 minutes prior to HFS) and subjected to analysis of variance (ANOVA) repeated measures analysis with a post-hoc Dunnett's test (GraphPad Prism, Version 4). […] EPSC amplitude values 15 to 20 minutes post-HFS were compared between control LTD experiments and those carried out either in transgenic TRPV1^−/− mice, or in the presence of drug using a t-test (unpaired, two-tailed, with Welch's correction if the variances between the groups were unequal). To calculate the effects of capsaicin, 12-(S)-HPETE or WIN 55,212-2 application on basal excitatory glutamatergic transmission, normalized EPSC amplitudes or fEPSP slopes were averaged in the final 5 minutes of drug application and compared with EPSCs/EPSPs 5 minutes prior to drug application. In addition, to measure capsaicin's effects on holding current, the peak change in holding current was measured during bath application of 3 μM capsaicin. The n-values reported refer to the number of slices. All combined data are expressed as mean±the standard error of the mean (s.e.m.).
# hippocampal area CA1 = details: in vivo treatment of animals after the induction of febrile seizures; cited from earlier work
# [6] = tested on: CA1 pyramidal neurons from trpv1−/− mice; assay: Residual heat-activated current in CA1 pyramidal neurons from trpv1-/- mice; format: cell-based, mouse; details: 10 μM ruthenium red bath; trpv1−/− CA1 neurons (34.6±8.4 pA without); n=5
# T1 sequence (Q704Y3 whole entry): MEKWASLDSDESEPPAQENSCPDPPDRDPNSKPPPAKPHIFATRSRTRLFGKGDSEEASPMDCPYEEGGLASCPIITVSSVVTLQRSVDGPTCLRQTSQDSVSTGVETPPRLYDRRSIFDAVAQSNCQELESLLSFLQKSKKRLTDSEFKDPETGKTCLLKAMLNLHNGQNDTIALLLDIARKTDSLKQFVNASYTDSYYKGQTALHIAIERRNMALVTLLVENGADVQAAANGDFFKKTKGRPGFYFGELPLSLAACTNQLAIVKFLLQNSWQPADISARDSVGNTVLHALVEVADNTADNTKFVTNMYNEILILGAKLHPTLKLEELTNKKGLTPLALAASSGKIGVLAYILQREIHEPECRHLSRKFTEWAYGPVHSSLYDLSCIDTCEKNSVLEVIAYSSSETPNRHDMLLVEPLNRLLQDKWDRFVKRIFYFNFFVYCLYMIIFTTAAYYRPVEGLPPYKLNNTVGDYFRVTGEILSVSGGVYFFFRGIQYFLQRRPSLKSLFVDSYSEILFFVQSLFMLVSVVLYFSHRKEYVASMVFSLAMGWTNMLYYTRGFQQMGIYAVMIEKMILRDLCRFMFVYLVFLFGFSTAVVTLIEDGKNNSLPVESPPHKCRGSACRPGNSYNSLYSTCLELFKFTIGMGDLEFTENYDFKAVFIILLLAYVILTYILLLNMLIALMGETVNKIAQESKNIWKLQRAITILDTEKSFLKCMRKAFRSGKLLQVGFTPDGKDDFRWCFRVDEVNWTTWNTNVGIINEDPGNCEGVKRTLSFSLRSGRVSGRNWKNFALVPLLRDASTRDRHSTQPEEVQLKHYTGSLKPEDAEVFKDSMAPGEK
compound,measurement,setting,value
C=C(C)[C@]12C[C@@H](C)[C@@]34O[C@](Cc5ccccc5)(O[C@@H]1[C@@H]3C=C(COC(=O)Cc1cc(I)c(O)c(OC)c1)C[C@]1(O)C(=O)C(C)=C[C@@H]41)O2 [5′-Iodoresiniferatoxin],EPSC amplitudes 15-20 minutes post-HFS in 5′-Iodoresiniferatoxin,"[1]; 5′-Iodoresiniferatoxin 100 nM bath applied prior to HFS, n=7",96.2±13.6 % of control values before HFS
"CCCCC/C=C\C[C@@H](/C=C/C=C\C/C=C\CCCC(=O)O)OO [12-(S)-HPETE, 12-(S)-Hydroperoxyeicosa-5Z, 8Z, 10E, 14Z-tetraenoic acid]",average synaptic failures in 12-(S)-HPETE,[2],89.7±3.0%
same,EPSC amplitudes after 10-15 minutes in 12-(S)-HPETE,"[3]; 12-(S)-HPETE 100 nM bath-applied, n=8",40.6±11.7 % of pre-drug control values
same,EPSC amplitudes after 10-15 minutes in 12-(S)-HPETE in TRPV1−/− mice,[4],109.0±6.8 % of pre-drug control values
same,12-(S)-HPETE-evoked current in CA1 neuron,TRPV1 channels,induces an inward current
same,EPSC amplitudes 15-20 minutes post-HFS,"[1]; HFS after 12-(S)-HPETE 100 nM (occlusion), n=6",98.7±15.3 % of control values in 12-(S)-HPETE before HFS
same,fEPSP slopes after 10-15 minutes in 12-(S)-HPETE,[5],99.0±3.5 % of pre-drug control values
Cc1c(C(=O)NN2CCCCC2)nn(-c2ccc(Cl)cc2Cl)c1-c1ccc(I)cc1 [AM251],"EPSC amplitudes after 10-15 minutes in both WIN 55,212-2 and AM251","[3]; AM251 2 μM applied before WIN 55,212-2 1 μM, n=5","101.7±8.9 % of pre-WIN 55,212-2 control values"
same,EPSC amplitudes 15-20 minutes post-HFS,"[1]; AM251 2 μM bath-applied, n=8",48.6±5.3 % of control values before HFS
"O=C(O)CN(CC(=O)O)c1ccccc1OCCOc1ccccc1N(CC(=O)O)CC(=O)O [BAPTA, 1,2-bis(o-aminophenoxy)ethane-N,N,N′,N′-tetraacetic acid]",cells recorded from with intracellular BAPTA that had LTD,[1]; patch pipette solution containing 25-40 mM BAPTA,6 of 14
same,EPSC amplitudes 15-20 minutes post-HFS with intracellular BAPTA,"[1]; patch pipette solution containing 25-40 mM BAPTA, n=14",90.5±8.5 % of control values before HFS
"N[C@H](CCCP(=O)(O)O)C(=O)O [D-AP5, D(−)-2-amino-5-phosphonovaleric acid]",EPSC amplitudes 15-20 minutes post-HFS,"[1]; D-AP5 50 μM in bath, P<0.001, n=26, LTD not prevented",62.0±5.3 % of control values before HFS
Nc1nc2c(ncn2[C@@H]2O[C@H](COP(=O)(O)OP(O)(O)=S)[C@@H](O)[C@H]2O)c(=O)[nH]1 [GDPβS],cells recorded from with intracellular GDPβS that had LTD,[1]; patch pipette solution containing 250 μM GDPβS,6 of 10
same,EPSC amplitudes 15-20 minutes post-HFS with intracellular GDPβS,"[1]; patch pipette solution containing 250 μM GDPβS, n=10",88.2±10.6 % of control values before HFS
COC(=O)[C@@H](N)CCCNC(=N)N[N+](=O)[O-] [L-NAME],EPSC amplitudes 15-20 minutes post-HFS,"[1]; 200 μM L-NAME bath applied 10 minutes prior to HFS, n=5",46.3±10.4 % of control values before HFS
Cc1c(C(=O)NN2CCCCC2)nn(-c2ccc(Cl)cc2Cl)c1-c1ccc(Cl)cc1 [SR141716A],EPSC amplitudes after 10-15 minutes in capsaicin and in the presence of SR141716A,"[3]; SR141716A 2 μM pretreatment, capsaicin 1 μM, n=6",102.8±9.2 % of pre-capsaicin control values
same,EPSC amplitudes after 10-15 minutes in 12-(S)-HPETE and in the presence of SR141716A,"[3]; SR141716A 2 μM, 12-(S)-HPETE 100 nM, n=5",106.9±5.5 % of pre-12-(S)-HPETE control values
same,EPSC amplitudes 15-20 minutes post-HFS,"[1]; SR141716A 2-5 μM bath-applied, n=10, control LTD 62.0±5.3%",110.6±19.3 % of control values before HFS
same,emergence of long-term limbic hyperexcitability,hippocampal area CA1,prevented the emergence of long-term limbic hyperexcitability
same,hyperexcitability in hippocampal area CA1,hippocampal area CA1,reduced hyperexcitability in hippocampal area CA1
"Cc1c(C(=O)c2cccc3ccccc23)c2cccc3c2n1[C@H](CN1CCOCC1)CO3 [WIN 55,212-2]","EPSC amplitudes after 10-15 minutes in WIN 55,212-2 alone","[3]; WIN 55,212-2 1 μM bath-applied, n=14",66.1±7.9 % of pre-drug control values
same,EPSC amplitudes 15-20 minutes post-HFS,"[1]; pre-treatment with WIN 55,212-2 1 μM for at least ten minutes, n=12","51.3±7.5 % of control values in WIN55,212-2 before HFS"
O=c1cc(-c2ccccc2)oc2cc(O)c(O)c(O)c12 [baicalein],cells with potentiation (greater than 125% of control 20 minutes following the HFS),[1]; baicalein 500 nM bath-applied,four of ten
same,EPSC amplitudes 15-20 minutes post-HFS,"[1]; baicalein 500 nM bath-applied, n=10",129.6±20.3 % of control values before HFS
same,cells recorded from with intracellular baicalein that had LTD,[1]; patch pipette solution containing 140 nM baicalein,4 of 12
same,EPSC amplitudes 15-20 minutes post-HFS with intracellular baicalein,"[1]; patch pipette solution containing 140 nM baicalein, n=12",110.8±15.4 % of control values before HFS
N.N.N.N.N.N.N.N.N.N.N.N.N.N.[Cl-].[Cl-].[Cl-].[Cl-].[Cl-].[Cl-].[O-2].[O-2].[Ru+3].[Ru+3].[Ru+4] [ruthenium red],peak heat-evoked inward current in ruthenium red,[6],9.3±7.7 pA

# Reference: patent US20110166196A1, “TREATMENT AND PROPHYLAXIS OF EPILEPSY AND FEBRILE SEIZURES” (priority 2008, published 2011)
